The results in this text go back to patent US9433580B2 (priority 2011, dated 2016).

In the experiment the test system is Pseudomonas aeruginosa. Put plainly: Burn wound infection model (mouse superficial skin model, thermal injury), log reduction of Pseudomonas aeruginosa. Conditions: orally 25 mg/kg body weight, day 6. The class given is in vivo, Swiss albino mice. On the procedure: Swiss albino mice were put into six groups and their backs were shaven. Thermal injury was induced in the shaven area by applying a heated brass rod on the back of the animals for 15 seconds to 20 seconds. For establishment of a topical infection, an inoculum containing approximately 2×10^5 bacteria (Pseudomonas aeruginosa) was injected subcutaneously (100 μL) on the sites of the burns. One hour post infection, the mice were treated using 100 mg of cream formulations of different drug concentrations. In case of all the cream formulations, 100 mg cream was applied topically twice daily for 5 days. One of the groups of mice was given Levofloxacin orally at 25 mg/kg body weight as a reference standard.

In the case of `C[C@H]1COc2c(N3CCN(C)CC3)c(F)cc3c(=O)c(C(=O)O)cn1c23` [Levofloxacin], the “Log reduction of microbial count” value was determined as 5.53 log10.
